Read-outs that look alike come from different tables or passages of the source.
Experiments:
[1] = Plasma pharmacokinetics in patients (LC/MS-MS, noncompartmental); format: in vivo, human
Procedure: Blood for pharmacokinetic analysis was collected C1D1 (pretreatment and postdose at 0.25, 0.5, 1, 2, 4, 6, 8, 10 hours), […] (pretreatment, postdose at 1 and 2 hours), C1D8 and day 15 (pretreatment, postdose 1 hour), C2D1 (pretreatment, postdose at 0.25, 0.5, 1, 2, 4, 6, 8, 10 hours), and pretreatment and 1 hour postdose on day 1 of C3, C4 and cycle 5. KIN-3248 concentration was determined at each timepoint by an established and validated LC/MS-MS assay.

[2] = test system: advanced solid tumors harboring FGFR2 and/or FGFR3 gene alterations; test: Antitumor activity by RECIST v1.1; format: in vivo, human
serum phosphate = test: Serum phosphate as pharmacodynamic biomarker; format: in vivo, human
Procedure: (§1) As FGFR1 is expressed in renal tubules and pharmacologic inhibition of FGFR1 leads to phosphate retention ([18]), serum phosphate levels were measured at each study visit as a pharmacodynamic biomarker. Paired pretreatment and on-treatment biopsies (cycle 1 day 8 to day 21) were collected and analyzed for phospho-ERK and total ERK by IHC. DUSP6 gene expression was measured in tumor samples using RNA ISH (RNAscope; probes from Advanced Cell Diagnostics).

phospho-ERK = test: Phospho-ERK relative to total ERK by IHC in paired biopsies; format: in vivo, human
Procedure: as §1

ctDNA = ctDNA molecular response (change in mean VAF, PredicineATLAS); format: in vivo, human; details: after 1 cycle; 26 patients evaluable for RECIST and ctDNA response
Description: Whole blood was collected into Streck Cell Free BCT DNA tubes on cycle 1 day 1 and cycle 2 day 1. Samples were processed to extract plasma followed by cell-free DNA isolation, which was then interrogated by PredicineATLAS, a 600 gene assay able to detect SNVs, indels, rearrangements, fusions, and copy-number gains, as described previously ([19]).
For each patient with available paired ctDNA, the change in ctDNA after one cycle of treatment was summarized by calculating the mean variant allele frequency (VAF) of all somatic mutations at each timepoint and then taking the ratio as follows: [(mean VAF^C2D1/mean VAF^C1D1) −1]*100 ([20]). For somatic mutations detected in only one sample of a patient-matched pair, the VAF was imputed to be zero for calculation purposes, when the mutation was not detected. Change in match pair ctDNA was correlated both categorically with RECIST v 1.1 response and continuously (Pearson R) with the best % change in target lesions. Biomarker analyses were conducted using R [R Core Team 2023 ([21])].

[3] = test system: patients with advanced solid tumors harboring FGFR2 and/or FGFR3 gene alterations
Procedure: The study was divided into two parts. […] The secondary objectives included antitumor activity in Part A, determination of pharmacokinetics and pharmacodynamics.
Dose level 1 was started at 5 mg oral daily, and patients were escalated on study to 50 mg daily. On the basis of ongoing efficacy, toxicity, and pharmacokinetic analysis, a planned amendment added additional cohorts up to 80 mg orally daily to define the MTD/RP2D. […] One cycle was 28 days of continuous dosing. Intrapatient dose escalation after safely tolerating two cycles was allowed if per protocol criteria were met. Patients continued therapy until evidence of disease progression, intolerance or unacceptable toxicity, withdrawal of consent, investigator decision, sponsor decision, or death.
Patients were evaluated with medical history, physical examinations, and clinical laboratory on days 1, 8, 15, and 22 of cycle 1; days 1 and 15 from cycle 2 through cycle 5; and day 1 of each subsequent cycle. […] Except for hyperphosphatemia, adverse events (AE) were graded according to the NCI-CTCAE (Common Terminology Criteria for Adverse Events) Version 5.0 at each study visit and for approximately 30 days following end of treatment.
The primary endpoints for the overall study, included: the incidence of DLTs, incidence of AEs, treatment-emergent AEs (TEAE), and treatment-related AEs (TRAE).

C=CC(=O)N1C[C@@H](n2nc(C#Cc3c(F)cc4c(ncn4C4CC4)c3F)c(C(N)=O)c2NC)C[C@@H]1COC [KIN-3248]
Exposure versus dose ([1]; 5-50 mg): generally dose proportional | Concentrations in Asian (China, Taiwan, Korean) versus non-Asian patients ([1]; exploratory analysis): not a qualitative difference | Accumulation ([1]; first two cycles): not observed | Apparent clearance (CL/F) ([1]; human, in vivo): 23,300-32,100 mL/hour | Steady-state geometric mean half-life (t1/2) ([1]; human, in vivo): approximately 4 hours | Volume of distribution (V/F) ([1]; human, in vivo): 135,000-200,000 mL | Best response in pretreated ICC patients with FGFR2 kinase domain resistance mutations ([2]; 3 patients): progressive disease | Response in FGFR2/3 fusion patients ([2]; 5 patients): 20% | ORR ([2]; 54 patients): 9.25% | Responders among FGFR inhibitor pretreated patients with acquired FGFR resistance mutations in ctDNA ([2]; of 4 patients, gastric cancer): 1 | Confirmed responders among FGFR inhibitor experienced patients ([2]; of 23 patients): 1 | Confirmed responders among FGFR inhibitor naïve patients ([2]; of 31 patients): 3 | Responders among FGFR inhibitor naïve patients ([2]; of 31 patients): 4 | Patients achieving CR ([2]; of 54 patients enrolled): none | Patients achieving PR ([2]; of 54 patients enrolled): 5 | DCR ([2]; total population): 46% | Patients achieving SD ([2]; twenty patients): 37.0% | Serum phosphate versus dose and exposure (serum phosphate; 54 participants): increased with dose and exposure | Onset of serum phosphate elevations (serum phosphate; all dose levels): within the f irst week | Phospho-ERK relative to total-ERK (phospho-ERK; eleven paired biopsy samples, IHC): trend toward reduction | Samples tested with a reduction in p-ERK (phospho-ERK; paired pretreatment and on-treatment biopsies): 50% | Patients with greater than 50% decrease in mean VAF (ctDNA): Six | Patients with treatment reduced and discontinued because of TEAEs ([3]; 7 patients): 13.0% | Patients with treatment-related grade 3 events ([3]; 11 of 54 patients): 20.4% | Patients with treatment interrupted because of TEAEs ([3]; 16 patients): 29.6% | Patients with TEAE grade ≥3 events ([3]; 25 of 54 patients): 46.3% | Patients with TRAEs of any grade ([3]; 47 of 54 patients): 87.0% | Patients with TEAEs of any grade ([3]; 53 of 54 patients): 98.1% | TRAE of any grade: diarrhea ([3]; 54 patients): 25.9% | TRAE of any grade: hyperphosphatemia ([3]; 54 patients): 64.8% | TRAE of any grade: stomatitis ([3]; 54 patients): 16.7% | Number of dose-limiting toxicities (DLT) ([3]; 54 patients, 5-50 mg orally daily, DLT at dose level 1 (5 mg): grade 3 drug hypersensitivity reaction): one | Patient with any TEAE, n (%) ([3]; CTCAE (V5) Grade 1–2, N = 54): 28 (51.9%) | TEAE Alanine aminotransferase increased, n (%) ([3]; CTCAE (V5) Grade 1–2, N = 54): 5 (9.3%) | TEAE Aspartate aminotransferase increased, n (%) ([3]; CTCAE (V5) Grade 1–2, N = 54): 4 (7.4%) | TEAE Blood and lymphatic system disorders, n (%) ([3]; CTCAE (V5) Grade 1–2, N = 54): 9 (16.7%) | TEAE Blood creatinine increased, n (%) ([3]; CTCAE (V5) Grade 1–2, N = 54): 7 (13.0%) | TEAE Constipation, n (%) ([3]; CTCAE (V5) Grade 1–2, N = 54): 12 (22.2%) | TEAE Decreased appetite, n (%) ([3]; CTCAE (V5) Grade 1–2, N = 54): 6 (11.1%) | TEAE Diarrhea, n (%) ([3]; CTCAE (V5) Grade 1–2, N = 54): 17 (31.5%) | TEAE Dry mouth, n (%) ([3]; CTCAE (V5) Grade 1–2, N = 54): 8 (14.8%) | TEAE Eye disorders, n (%) ([3]; CTCAE (V5) Grade 1–2, N = 54): 12 (22.2%) | TEAE Fatigue, n (%) ([3]; CTCAE (V5) Grade 1–2, N = 54): 11 (20.4%) | TEAE Gastrointestinal disorders, n (%) ([3]; CTCAE (V5) Grade 1–2, N = 54): 35 (64.8%) | TEAE General disorders and administration site conditions, n (%) ([3]; CTCAE (V5) Grade 1–2, N = 54): 18 (33.3%) | TEAE Hypercalcemia, n (%) ([3]; CTCAE (V5) Grade 1–2, N = 54): 5 (9.3%) | TEAE Hyperphosphatemia, n (%) ([3]; CTCAE (V5) Grade 1–2, N = 54): 29 (53.7%) | TEAE Infections and infestations, n (%) ([3]; CTCAE (V5) Grade 1–2, N = 54): 4 (7.4%) | TEAE Investigations, n (%) ([3]; CTCAE (V5) Grade 1–2, N = 54): 19 (35.2%) | TEAE Metabolism and nutrition disorders, n (%) ([3]; CTCAE (V5) Grade 1–2, N = 54): 30 (55.6%) | TEAE Musculoskeletal and connective tissue disorders, n (%) ([3]; CTCAE (V5) Grade 1–2, N = 54): 14 (25.9%) | TEAE Nausea, n (%) ([3]; CTCAE (V5) Grade 1–2, N = 54): 6 (11.1%) | TEAE Nervous system disorders, n (%) ([3]; CTCAE (V5) Grade 1–2, N = 54): 7 (13.0%) | TEAE Psychiatric disorders, n (%) ([3]; CTCAE (V5) Grade 1–2, N = 54): 7 (13.0%) | TEAE Respiratory, thoracic, and mediastinal disorders, n (%) ([3]; CTCAE (V5) Grade 1–2, N = 54): 7 (13.0%) | TEAE Skin and subcutaneous tissue disorders, n (%) ([3]; CTCAE (V5) Grade 1–2, N = 54): 14 (25.9%) | TEAE Stomatitis, n (%) ([3]; CTCAE (V5) Grade 1–2, N = 54): 11 (20.4%) | TEAE Vascular disorders, n (%) ([3]; CTCAE (V5) Grade 1–2, N = 54): 5 (9.3%) | Patient with any TEAE, n (%) ([3]; CTCAE (V5) Grade 3, N = 54): 18 (33.3%) | TEAE Alanine aminotransferase increased, n (%) ([3]; CTCAE (V5) Grade 3, N = 54): 1 (1.9%)
